Assay results from the supplement of paper PMC3974653.
Structures can show the parent of a compound that is named as a salt.

Tested on: MTT (mouse pheochromocytoma)
Experiment: IC50 of cell viability (ATP content)
Details: (24 or 48 h)
Procedure, shortened: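 After overnight culture at 37°C, 5% CO2 in white 1536-well plates, MTT mouse pheochromocytoma cells were given 23 nl of library compound in DMSO by pintool across 8 concentrations, spanning final 0.5 nM to 46 µM. Following 24 or 48 hrs, CellTiter-Glo luminescence was read after 15 minutes and normalised against positive-control (100%) and DMSO (0%) wells. A four-parameter logistic model provided the IC50.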

SMILES | IC50 of cell viability [µM]
CC[N+]1(C)CCCC(OC(=O)C(O)(c2ccccc2)c2ccccc2)C1.[Br-] (stereo not given) [PIPENZOLATE BROMIDE] | > 46
S=C(S)N1CCNCC1 [PIPERAZINE-CARBON DISULFIDE COMPLEX] | > 46
c1ccc2c(c1)OCC(CN1CCCCC1)O2 (stereo not given) [PIPEROXANUM] | > 46
O=C(OCCN1CCCCC1)C(O)(c1ccccc1)c1ccccc1 [PIPETHANATE HYDROCHLORIDE] | > 46
O=C(CCBr)N1CCN(C(=O)CCBr)CC1 [PIPOBROMAN] | > 46
CN1CCN(CC(=O)N2c3ccccc3C(=O)Nc3cccnc32)CC1 [PIRENZEPINE] | > 46
CN1CC\C(CC1)=C2\C3=C(CCC4=CC=CC=C24)SC=C3 [PIZOTIFEN] | > 46
CCC(C)CCCCC(=O)NC(CCN)C(=O)NC(C(=O)NC(CCN)C(=O)NC1CCNC(=O)C(C(C)O)NC(=O)C(CCN)NC(=O)C(CCN)NC(=O)C(CC(C)C)NC(=O)C(Cc2ccccc2)NC(=O)C(CCN)NC1=O)C(C)O.O=[S+]([O-])(O)O (stereo not given) [POLYMYXIN B SULFATE] | > 46
O=P([O-])([O-])OC[C@@H](O)CO [POTASSIUM GLYCEROPHOSPHATE] | > 46
CCCCCCC(O)C/C=C/CCCCCCCC(=O)O (stereo not given) [POTASSIUM RICINOLEATE] | > 46
CCCCCC[C@@H](O)C/C=C\CCCCCCCC(=O)O [POTASSIUM RICINOLEATE] | > 46
CC(=O)Nc1ccc(OCC(O)CNC(C)C)cc1 (stereo not given) [PRACTOLOL] | > 46
CCCN[C@H]1CCc2nc(N)sc2C1 [PRAMIPEXOLE DIHYDROCHLORIDE] | > 46
CC(C(=O)O)c1ccc2c(c1)Cc1cccnc1O2 (stereo not given) [PRANOPROFEN] | > 46
N=C(N)n1cccn1 [PRAXADINUM] | > 46
ClC1=CC=C2N(CC3CC3)C(=O)C\N=C(\C4=CC=CC=C4)C2=C1 [PRAZEPAM] | > 46
CC(=O)OCC(=O)[C@@]1(O)CCC2C3CCC/4=C/C(=O)/C=C\C4(C)C3C(O)C[C@@]12C (stereo not given in full) [PREDNISOLONE ACETATE] | > 46
C[C@@]12CC(O)C3C(CCC/4=C/C(=O)/C=C\[C@]34C)C1CC[C@]2(O)C(=O)CO (stereo not given in full) [PREDNISOLONE] | > 46
CC(C)CC(CN)CC(=O)O (stereo not given) [PREGABALIN] | > 46
CCCC(C(=O)OCCN(CC)CC)(c1ccccc1)c1ccccc1.Cl [PROADIFEN HYDROCHLORIDE] | > 46
CCN(CC)CCNC(=O)c1ccc(N)cc1 [PROCAINAMIDE] | > 46
CC[C@H](NC(C)C)[C@H](O)C1=CC=C(O)C2=C1\C=C/C(=O)N2 [PROCATEROL] | > 46
O=C(O)CCc1nc2ccccc2[nH]1 [PROCODAZOLUM] | > 46
CC(C)[N+](C)(CCOC(=O)C1c2ccccc2Oc2ccccc21)C(C)C.[Br-] [PROPANTHELINE BROMIDE] | > 46
CC(C)c1cccc(C(C)C)c1O [PROPOFOL] | > 46
CCCCCCCCCCCCCCCCCC(=O)OCC(C)O (stereo not given) [PROPYLENE GLYCOL STEARATE SE] | > 46

SMILES | IC50 of cell viability [µM]
CCCc1cc(C(N)=S)ccn1 [PROTHIONAMIDE] | > 46
NC(=O)[C@@H]1CCCN1C(=O)[C@H](Cc1cnc[nH]1)NC(=O)[C@@H]1CCC(=O)N1 [PROTIRELIN] | > 46
O=C(O)c1cccc(-c2noc(-c3ccccc3F)n2)c1 [PTC 124] | > 46
c1cc2ccc3cccc4ccc(c1)c2c34 [PYRENE] | > 46
C=C/C=C/CC1=C(C)[C@@H](OC(=O)[C@@H]2[C@@H](/C=C(\C)C(=O)OC)C2(C)C)CC1=O.C=C/C=C/CC1=C(C)[C@@H](OC(=O)[C@@H]2[C@@H](C=C(C)C)C2(C)C)CC1=O [PYRETHRINS/Pestanal] | > 46
CNC(=O)OCc1cccc(COC(=O)NC)n1 [PYRIDINOL CARBAMATE] | > 46
CN(C)C(=O)Oc1ccc[n+](C)c1.[Br-] [PYRIDOSTIGMINE BROMIDE] | > 46
Cc1ncc(CO)c(C=O)c1O [PYRIDOXAL HYDROCHLORIDE] | > 46
Cc1ncc(COP(=O)(O)O)c(C=O)c1O [PYRIDOXAL PHOSPHATE] | > 46
Cc1ncc(CSSCc2cnc(C)c(O)c2CO)c(CO)c1O [PYRITHIOXINE] | > 46
CCC1(CC)C(=O)N\C=C/C1=O [PYRITHYLDIONE] | > 46
CCCCC(CC)COC(=O)c1ccc(N(C)C)cc1 (stereo not given) [Padimate O] | > 46
CCCCCCCCCCCCCCCC(=O)NCCO [Palmitoylethanolamide] | > 46
NCCC(O)(P(=O)(O)O)P(=O)(O)O [Pamidronate disodium] | > 46
O=C(O)c1cc2ccccc2c(Cc2c(O)c(C(=O)O)cc3ccccc23)c1O [Pamoic acid] | > 46
COc1ccc(Cc2nccc3cc(OC)c(OC)cc23)cc1OC [Papaverine hydrochloride] | > 46
CCC(=O)Nc1ccc(O)cc1 [Parapropamol] | > 46
C#CCN(C)Cc1ccccc1 [Pargyline hydrochloride] | > 46
C[C@H](/C=C/[C@H](C)C(C)(C)O)[C@H]1CC[C@H]2/C(=C/C=C3C[C@@H](O)C[C@H](O)C3)CCC[C@]12C [Paricalcitol] | > 46
Fc1ccc(C2CCNCC2COc2ccc3c(c2)OCO3)cc1 (stereo not given) [Paroxetine] | > 46
Nc1ccc(C(=O)[O-])c(O)c1 [Pasiniazid] | > 46
Cc1ccc(Nc2nccc(N(C)c3ccc4c(C)n(C)nc4c3)n2)cc1[S+](N)(=O)[O-] [Pazopanib] | > 46
CN1CCCC(CN2c3ccccc3Sc3ccccc32)C1 (stereo not given) [Pecazina] | > 46
CC(C)(C)NC[C@@H](O)COc1ccccc1C1CCCC1 [Penbutolol sulfate] | > 46
OC1(c2ccc(Cl)c(C(F)(F)F)c2)CCN(CCCC(c2ccc(F)cc2)c2ccc(F)cc2)CC1 [Penfluridol] | > 46
Nc1c(Cl)c(Cl)c(Cl)c(Cl)c1Cl [Pentachloroaniline] | > 46

More lines, now with the values ahead:

IC50 of cell viability [µM] | SMILES
> 46 | NC(=O)C1(N2CCCCC2)CCN(CCCC(=O)c2ccc(F)cc2)CC1 [PIPAMPERONE HYDROCHLORIDE]
> 46 | CC1CCCCN1CCCOC(=O)c1ccccc1 (stereo not given) [PIPEROCAINE HYDROCHLORIDE]
> 46 | O=C([O-])c1cc(O)c2c3nc4ccccc4oc-3cc(=O)c2n1 [PIRENOXINE]
> 46 | CC/1=C(CCN2CCC(CC2)C(=O)C3=CC=C(F)C=C3)/C(=O)N4\C=C/C=C\C4=N1 [PIRENPERONE]
> 46 | c1cnc(N2CCN(Cc3ccc4c(c3)OCO4)CC2)nc1 [PIRIBEDIL]
> 46 | CC(C)[N+](C)(C)CC(O)COc1cccc2ccccc12 (stereo not given) [PRANOLII CHLORIDUM]
> 46 | CC[N+]1(CC)CCC(=C(c2ccccc2)c2ccccc2)C1C (stereo not given) [PRIFINIUM BROMIDE]
> 46 | CCC1(c2ccccc2)C(=O)NCNC1=O [PRIMIDONE]
> 46 | CC(CN1c2ccccc2Sc2ccccc21)N(C)C (stereo not given) [PROMETHAZINE]
> 46 | CC(C)NCC(O)c1ccc2ccccc2c1 (stereo not given) [PRONETHALOL]
> 46 | CCCn1cnc2c1c(=O)n(CCCCC(C)=O)c(=O)n2C [PROPENTOFYLLINE]
> 46 | CCCOC(C(=O)OC1CCN(C)CC1)(c1ccccc1)c1ccccc1 [PROPIVERINE HYDROCHLORIDE]
> 46 | CCCOC(=O)c1ccccc1 [PROPYL BENZOATE]
> 46 | CCCOC(=O)c1ccccc1O [PROPYL SALICYLATE]
> 46 | C=CC1=C(C)c2cc3[nH]c(cc4nc(cc5[nH]c(cc1n2)c(C)c5CCC(=O)[O-])C(CCC(=O)[O-])=C4C)c(C)c3C=C [PROTOPORPHYRIN DISODIUM]
> 46 | Cc1ncc(COP(=O)(O)O)c(CN)c1O [PYRIDOXAMINE PHOSPHATE]
> 46 | O=C1CC[C@@H](C(=O)O)N1 [PYRROLIDONE CARBOXYLIC ACID]
> 46 | O=[N+]([O-])c1c(Cl)cccc1-c1c[nH]cc1Cl [PYRROLNITRIN]
> 46 | CC(C)CCOC(=O)c1ccc(N(C)C)cc1 [Padimato]
> 46 | C[C@@H]1C[C@H]2C3C[C@H](F)\C4=C\C(=O)\C=C/C4(C)C3[C@@H](O)CC2(C)[C@@]1(O)C(=O)COC(C)=O (stereo not given in full) [Paramethasone acetate]
> 46 | CCC(=O)[N-]S(=O)(=O)c1ccc(-c2c(-c3ccccc3)noc2C)cc1 [Parecoxib sodium]
> 46 | CSCCC(NC(=O)C(Cc1c[nH]c2ccccc12)NC(=O)CCNC(=O)OC(C)(C)C)C(=O)NC(CC(=O)O)C(=O)NC(Cc1ccccc1)C(N)=O (stereo not given) [Pentagastrin]
> 46 | O=C(O)CN(CCN(CC(=O)O)CC(=O)O)CCN(CC(=O)O)CC(=O)O [Pentetic acid]
